Assay results from patent US4064121A, “Substituted nitrobenzophenone derivatives and a process for the preparation thereof” (Richter Gedeon Vegyeszeti Gyar Rt., priority 1973, dated 1977).

Columns and labels:
[1] = test system: liver microsomal enzyme; assay: Enzyme inductive effect (shortening of hexobarbital sleeping time in Wistar female rats); type: in vivo; conditions: for Mean duration of sleeping ± S.E.: 60 mg./kg. p.o., 24 hours later hexobarbital 40 mg./kg. i.v., female Wistar rats, control 19.4 ± 1.88
Method: As reference substances, phenobarbital and phenacetine were used in the experiments. The pharmacological tests were carried out as follows:
To investigate the enzyme inductive effect, Wistar female rats, each weighing 40 to 50 g. were treated with pure solvent, or with a dosage of 60 mg./kg. of phenobarbital or the compound to be tested, respectively. 24 hours after this treatment 40 mg./kg. of hexobarbital were administered intravenously into the animals. The reduction of the elimination period and the liver enzyme induction was expressed as the shortening of the duration of sleeping.

[2] = test system: central nervous system; conditions: known effects at the test animals; cited from earlier work
[3] = Antipyretic effect (rectal temperature after yeast suspension and pyrago in male rats); type: in vivo; conditions: 40 mg./kg. orally, yeast and pyrago fever, recorded for 5 hours
Method: To test the antipyretic effect, a 15% yeast suspension was administered to male rats each weighing 180 ±10 g. No food was given to the animals, they could consume, however, arbitrary amount of water. 16 hours after the administration of yeast the rectal body temperature of the animals was taken, and the animals were treated with pyrago in an intravenous dosage of 50 M bact./animal. The compound to be tested was administered orally into the animals, thereafter the change in rectal temperature both for the treated and the control animals was recorded for 5 hours, using an "Elab" type electrothermometer. Phenacetine, used as reference substance, and the compounds of the invention were administered in dosages of 40 mg./kg. body weight.

[4] = LD50 p.o. (acute toxicity); conditions: in vivo, po, species not given
[5] = test system: central nervous system; assay: Central nervous system effects (anticonvulsive, rotarod muscle relaxation, sedative tests); type: in vivo; conditions: in the dosage utilized

SMILES: CCC1(c2ccccc2)C(=O)NC(=O)NC1=O [Phenobarbital, reference compound]
- Mean duration of sleeping ± S.E. ([1]; * = (below a significance level of 5 %)): 14.2 ± 1.88 min
- effects on the central nervous system [2]: significant effects on the central nervous system, which manifests at the test animals in ataxia, sedatio and anticonvulsive effect

SMILES: CC(C)CN(CC(C)C)c1ccc(C(=O)c2ccccc2)cc1[N+](=O)[O-] [Example B9, 3-Nitro-4-(N.N-diisobutylamino)-benzophenone]
- Decrease of temperature [3]: -1.0 °C
- LD50 [4]: > 3000 mg/kg

SMILES: CCOc1ccc(NC(C)=O)cc1 [Phenacetine, reference compound]
- Decrease of temperature [3]: -1.1 °C

SMILES: O=C(c1ccccc1)c1ccc(N2CCOCC2)c([N+](=O)[O-])c1 [Example B2, 3-nitro-4-morpholino-benzophenone]
- effect on the central nervous system [5]: no effect on the central nervous system
- LD50 [4]: 1200 mg/kg
- Mean duration of sleeping ± S.E. ([1]; * = p>0.05 (below a significance level of 5 %)): 14.6 ± 1.65 min
- inductive effect ([1]; in words, compared with phenobarbital): the same as that of phenobarbital

SMILES: CC[N+]1(C)CCN(c2ccc(C(=O)c3ccccc3)cc2[N+](=O)[O-])CC1 [Example B11, 3-nitro-4-(N-methyl-piperazino)-benzophenone ethobromide]
- Decrease of temperature [3]: -1.1 °C
- LD50 [4]: > 3000 mg/kg
